These results are taken from paper PMC5415608, “The Effects of Herbicides Targeting Aromatic and Branched Chain Amino Acid Biosynthesis Support the Presence of Functional Pathways in Broomrape” (Frontiers in Plant Science, 2017).

In assay [1] the test system is T1, ALS (P. aegyptiaca acetolactate synthase).
T1 construct: single gene copy found; predicted 42-residue chloroplast transit peptide
Briefly: colorimetric acetoin assay (creatine/alpha-naphthol, […] nm), partially purified extract. As to conditions: flowering shoot enzyme; 167 mM pyruvate, 16.7 mM MgCl2, 1.67 mM TPP, 16.6 μM FAD, pH 7.0, 37°C, 60 min; read-out: ID50 (the source's name). The assay is classed as biochemical, Phelipanche aegyptiaca.

Assay [2] relates to T2, EPSPS (P. aegyptiaca 5-enolpyruvylshikimate-3-phosphate synthase).
T2 construct: single gene copy found; predicted 64-residue chloroplast transit peptide
Description: colorimetric phosphate release assay ([…] nm), partially purified extract. As to conditions: callus enzyme; 1 mM shikimate-3-phosphate (natural substrate), 0.1 mM phosphoenolpyruvate, 500 mM MES pH 5.5, 2 mM DTT, 30°C, 15 min; read-out: ID50 (the source's name). Type of assay: biochemical, Phelipanche aegyptiaca.

Assay [3] has as its system T3, ALS from young tomato leaves.
T3 construct: gene ALS1; native, partially purified extract of young tomato leaves
Description: colorimetric acetoin assay (creatine/alpha-naphthol, […] nm), partially purified extract. The following applies: young leaf enzyme; 167 mM pyruvate, 16.7 mM MgCl2, 1.67 mM TPP, 16.6 μM FAD, pH 7.0, 37°C, 60 min; read-out: ID50 (the source's name). The assay is classed as biochemical, Solanum lycopersicum.

SMILES strings stand for the structures.

Turning to `CCS(=O)(=O)c1cccnc1S(=O)(=O)NC(=O)Nc1nc(OC)cc(OC)n1` [rimsulfuron], the IC50 in assay [1] turned out to be 0.11 ± 0.03 µM. On the same count and under the same terms, for `CC(C)C1(C)N=C(c2ncccc2C(=O)O)NC1=O` (centres unmarked) [imazapyr] the value was 11.6 ± 1.2 µM. In the case of `O=C(O)CNCP(=O)(O)O` [glyphosate], the IC50 in assay [2] is around 8 µM.

With `Cc1cnc(C2=NC(C)(C(C)C)C(=O)N2)c(C(=O)O)c1` (centres unmarked) [imazapic], the IC50 is around 0.47 µM in assay [3] and 2.07 ± 0.07 µM in assay [1].
